Type in all cases: cell-based
For data set [1], the system named is human Factor 11 mRNA. Description: Dose-dependent inhibition of human Factor 11 in HepG2 cells, electroporation 123.46-10,000 nM (Example 31). As to conditions: for Percent inhibition of Factor 11 mRNA at 123.47 nM / Percent inhibition of Factor 11 mRNA at 370.37 nM / IC50: electroporation; for Percent inhibition of Factor 11 mRNA at 123.47 nM / Percent inhibition of Factor 11 mRNA at 370.37 nM / Percent inhibition of Factor 11 mRNA at 1,111.11 nM / Percent inhibition of Factor 11 mRNA at 3,333.33 nM / Percent inhibition of Factor 11 mRNA at 10,000.0 nM: approx. 16 hours, relative to untreated control cells; for Percent inhibition of Factor 11 mRNA at 1,111.11 nM: electroporation, 1,111.11 nM; for Percent inhibition of Factor 11 mRNA at 3,333.33 nM: electroporation, 3,333.33 nM; for Percent inhibition of Factor 11 mRNA at 10,000.0 nM: electroporation, 10,000.0 nM; for IC50: Factor 11 mRNA expression. On the procedure:
Cells were plated at a density of 20,000 cells per well and transfected using electroporation with 123.46 nM, 370.37 nM, 1,111.11 nM, 3,333.33 nM and 10,000 nM concentrations of antisense oligonucleotide, as specified in Table 45. After a treatment period of approximately 16 hours, RNA was isolated from the cells and Factor 11 mRNA levels were measured by quantitative real-time PCR. Human Factor 11 primer probe set RTS 2966 was used to measure mRNA levels. Factor 11 mRNA levels were adjusted according to total RNA content, as measured by RIBOGREEN. Results are presented as percent inhibition of Factor 11, relative to untreated control cells.

Data set [2] deals with human Factor 11 mRNA. Briefly: Antisense inhibition of human Factor 11 in HepG2 cells, electroporation, 8,000 nM (Example 30). The settings on record: electroporation, 8,000 nM antisense oligonucleotide. The procedure: These microwalk gapmers were tested in vitro. Cultured HepG2 cells at a density of 20,000 cells per well were transfected using electroporation with 8,000 nM antisense oligonucleotide. After a treatment period of approximately 24 hours, RNA was isolated from the cells and Factor 11 mRNA levels were measured by quantitative real-time PCR. Factor 11 mRNA levels were adjusted according to total RNA content, as measured by RIBOGREEN. Results are presented as percent inhibition of Factor 11, relative to untreated control cells.
The chimeric antisense oligonucleotides in Table 44 were designed as 5-10-5 MOE, 5-8-5 and 6-8-6 MOE gapmers. The first two listed gapmers in Table 44 are the original gapmers (ISIS 416850 and ISIS 416858) from which ISIS 445493-445543 were designed via microwalk, and are designated by an asterisk. The 5-10-5 gapmers are 20 nucleotides in length, wherein the central gap segment is comprised of ten 2′-deoxynucleotides and is flanked on both sides (in the 5′ and 3′ directions) by wings comprising five nucleotides each. The 5-8-5 gapmers are 18 nucleotides in length, wherein the central gap segment is comprised of eight 2′-deoxynucleotides and is flanked on both sides (in the 5′ and 3′ directions) by wings comprising five nucleotides each. The 6-8-6 gapmers are 20 nucleotides in length, wherein the central gap segment is comprised of eight 2′-deoxynucleotides and is flanked on both sides (in the 5′ and 3′ directions) by wings comprising six nucleotides each. For each of the motifs (5-10-5, 5-8-5 and 6-8-6), each nucleotide in the 5′ wing segment and each nucleotide in the 3′ wing segment has a 2′-MOE modification. The internucleoside linkages throughout each gapmer are phosphorothioate (P=S) linkages. All cytidine residues throughout each gapmer are 5-methylcytidines. “Human Target start site” indicates the 5′-most nucleotide to which the gapmer is targeted in the human sequence. “Human Target stop site” indicates the 3′-most nucleotide to which the gapmer is targeted in the human sequence. Each gapmer listed in Table 44 is targeted to SEQ ID NO: 1 (GENBANK Accession No. NM_000128.3). Each gapmer is Table 44 is also fully cross-reactive with the rhesus monkey Factor 11 gene sequence, designated herein as SEQ ID NO: 274 (exons 1-15 GENBANK Accession No. NW_001118167.1). ‘Rhesus monkey start site’ indicates the 5′-most nucleotide to which the gapmer is targeted in the rhesus monkey sequence. ‘Rhesus monkey stop site’ indicates the 3′-most nucleotide to which the gapmer is targeted to the rhesus monkey sequence.

In data set [3] the test system is human Factor 11 mRNA. Briefly: Antisense inhibition of human Factor 11 in HepG2 cells by microwalk gapmers, lipofectin, 75 nM (Example 3). Summed up:
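HepG2 cells (10,000/well) were transfected via lipofectin with 75 nM 20-mer MOE gapmers (phosphorothioate, 5-methyl-C) for about 24 h. Factor 11 mRNA was measured by qRT-PCR, normalized to RIBOGREEN total RNA, and given as percent inhibition versus untreated cells.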

Data set [4] has as its system human Factor 11 mRNA. Briefly: Antisense inhibition of human Factor 11 in HepG2 cells, lipofectin, 75 nM (Example 1). As to conditions: 75 nM antisense oligonucleotide, ~24 h, relative to untreated control cells, gapmers targeted to SEQ ID NO: 1. The essentials: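 HepG2 cells transfected via lipofectin with 75 nM antisense oligonucleotide (5-10-5 MOE gapmers, 20-mers, phosphorothioate, 5-methylcytidines), treated ~24 h. Factor 11 mRNA quantified by real-time PCR, normalised to RIBOGREEN total RNA; percent inhibition versus untreated cells.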

In data set [5] the test system is human Factor 11 mRNA. Briefly: Dose-dependent antisense inhibition of human Factor 11 in HepG2 cells, lipofectin 9.375-150 nM (Example 2). As to conditions: ~16 h. The procedure:
Cells were plated at a density of 10,000 cells per well and transfected using lipofectin reagent with 9.375 nM, 18.75 nM, 37.5 nM, 75 nM, and 150 nM concentrations of antisense oligonucleotide, as specified in Table 3. After a treatment period of approximately 16 hours, RNA was isolated from the cells and Factor 11 mRNA levels were measured by quantitative real-time PCR. Human Factor 11 primer probe set RTS 2966 (forward sequence: […], incorporated herein as SEQ ID NO: 3; reverse sequence: […], incorporated herein as SEQ ID NO: 4; probe sequence: TTGTCTACTGAAGCACACCCAAACAGGGAX, incorporated herein as SEQ ID NO: 5) was used to measure mRNA levels. Factor 11 mRNA levels were adjusted according to total RNA content, as measured by RIBOGREEN. Results are presented as percent inhibition of Factor 11, relative to untreated control cells.

The mark [6] stands for this setting: HepG2 cells, lipofectin, gapmers targeted to nucleobases 1275 to 1318 of SEQ ID NO: 1.
The mark [7] stands for this setting: HepG2, lipofectin, ~24 h, gapmers targeted to nucleobases 656 to 704 of SEQ ID NO: 1.

Strand notation (5' to 3'): a small letter for the sugar, then the base; units joined by * are phosphorothioate-linked, units joined directly phosphodiester-linked; [ ] holds rarer units or linkages, { } end groups; capitals alone tell only the bases. e = 2'-O-(2-methoxyethyl) (MOE); [5mC] = 5-methylcytosine; d = 2'-deoxy (DNA)

By IC50 is commonly meant the concentration that gives 50% inhibition. A higher IC50 goes with a need for much substance. As a reminder, the % inhibition is the share of the control response that was lost under treatment. Read a low % inhibition as a response near the control. Regarding “416857 (antisense e[5mC]*eG*eG*e[5mC]*eA*dT*dT*dG*dG*dT*dG*d[5mC]*dA*d[5mC]*dA*eG*eT*eT*eT*e[5mC]) [compound 416857]”, in data set [1], the “Percent inhibition of Factor 11 mRNA at 123.47 nM” value (“Percent inhibition … at 123.47 nM” below) was 2%, the “Percent inhibition of Factor 11 mRNA at 370.37 nM” value (“Percent inhibition … at 370.37 nM” below) came to 20%, the “Percent inhibition of Factor 11 mRNA at 1,111.11 nM” value (“Percent inhibition … at 1,111.11 nM” below) turned out to be 35% and the “Percent inhibition of Factor 11 mRNA at 3,333.33 nM” value (from here on “Percent inhibition … at 3,333.33 nM”) is 62%. In addition, in data set [1], the “Percent inhibition of Factor 11 mRNA at 10,000.0 nM” value (shortened to “Percent inhibition … at 10,000.0 nM”) came out at 72% and the half-maximal inhibitory concentration (IC50) amounted to 2.3 µM. For the same substance, the “Percent inhibition of human Factor 11 mRNA levels” value in data set [2] is listed as 91%. The “% inhibition” value in data set [3] (setting [6]) worked out at 92%.

Consider “445503 (antisense eG*e[5mC]*eA*eT*eT*eG*dG*dT*dG*d[5mC]*dA*d[5mC]*dA*dG*eT*eT*eT*e[5mC]*eT*eG) [compound 445503]”, for which, in data set [1], the “Percent inhibition … at 123.47 nM” value is recorded as 0%, the “Percent inhibition … at 370.37 nM” value amounted to 0%, the “Percent inhibition … at 1,111.11 nM” value came to 22% and the “Percent inhibition … at 3,333.33 nM” value was determined as 36%. Also, in data set [1], the “Percent inhibition … at 10,000.0 nM” value is recorded as 60% and half-maximal inhibition (IC50) was put at 5.9 µM. Further, in data set [2], the “Percent inhibition of human Factor 11 mRNA levels” value came out at 89%.

As for “445532 (antisense e[5mC]*eG*eG*e[5mC]*eA*dT*dT*dG*dG*dT*dG*d[5mC]*dA*e[5mC]*eA*eG*eT*eT) [compound 445532]”, in data set [1], the “Percent inhibition … at 123.47 nM” value came out at 5%, the “Percent inhibition … at 370.37 nM” value was 12%, the “Percent inhibition … at 1,111.11 nM” value is 39% and the “Percent inhibition … at 3,333.33 nM” value came out at 60%. In data set [1], the “Percent inhibition … at 10,000.0 nM” value is 70% and the IC50 was found to be 2 µM. For the same substance, the “Percent inhibition of human Factor 11 mRNA levels” value in data set [2] came to 89%.

As to “412212 (antisense e[5mC]*e[5mC]*eG*eG*eG*dA*dT*dG*dA*dT*dG*dA*dG*dT*dG*e[5mC]*eA*eG*eA*eT) [compound 412212]”, in data set [4], the “% inhibition” value was determined as 88%. In addition, in data set [5], the “percent inhibition of Factor 11 at 9.375 nM” value came to 28%, the “percent inhibition of Factor 11 at 18.75 nM” value is recorded as 45%, the “percent inhibition of Factor 11 at 37.5 nM” value worked out at 59% and the “percent inhibition of Factor 11 at 75 nM” value is 73%. In data set [5], the “percent inhibition of Factor 11 at 150 nM” value was 88% and half-maximal inhibition (IC50) was put at 0.025 µM. The “% inhibition” value in data set [3] (HepG2 cells, lipofectin, gapmers targeted to nucleobases 1018 to 1042 of SEQ ID NO: 1) came to 89%.

In the case of “413468 (antisense eG*eT*e[5mC]*eT*eA*dG*dG*dT*d[5mC]*d[5mC]*dA*d[5mC]*dA*dT*dA*eA*eA*eT*eG*eT) [compound 413468]”, the “% inhibition” value in data set [4] is listed as 84%. Moreover, in data set [5], the “percent inhibition of Factor 11 at 9.375 nM” value is on record as 14%, the “percent inhibition of Factor 11 at 18.75 nM” value is 34%, the “percent inhibition of Factor 11 at 37.5 nM” value was determined as 56% and the “percent inhibition of Factor 11 at 75 nM” value was 78%. In addition, in data set [5], the “percent inhibition of Factor 11 at 150 nM” value turned out to be 75% and it took 0.035 µM to reach half-maximal inhibition (IC50). In addition, in data set [3] (setting [7]), the “% inhibition” value is 83%.

Regarding “416849 (antisense eG*e[5mC]*eA*e[5mC]*eA*dG*dT*dT*dT*d[5mC]*dT*dG*dG*d[5mC]*dA*eG*eG*e[5mC]*e[5mC]*eT) [compound 416849]”, in data set [1], the “Percent inhibition … at 123.47 nM” value turned out to be 5%, the “Percent inhibition … at 370.37 nM” value is listed as 5%, the “Percent inhibition … at 1,111.11 nM” value was determined as 26% and the “Percent inhibition … at 3,333.33 nM” value stood at 57%. Besides, in data set [1], the “Percent inhibition … at 10,000.0 nM” value amounted to 68% and the IC50 stood at 2.7 µM. For the same substance, the “Percent inhibition of human Factor 11 mRNA levels” value in data set [2] came out at 88%. For the same substance, the “% inhibition” value in data set [3] (setting [6]) was found to be 88%.

Regarding “416854 (antisense eA*eT*eT*eG*eG*dT*dG*d[5mC]*dA*d[5mC]*dA*dG*dT*dT*dT*e[5mC]*eT*eG*eG*e[5mC]) [compound 416854]”, the “Percent inhibition of human Factor 11 mRNA levels” value in data set [2] is on record as 86%. In addition, the “% inhibition” value in data set [3] (setting [6]) is reported as 90%.

With “413469 (antisense eT*eG*e[5mC]*e[5mC]*e[5mC]*dT*dT*d[5mC]*dA*dT*dG*dT*d[5mC]*dT*dA*eG*eG*eT*e[5mC]*e[5mC]) [compound 413469]”, the “% inhibition” value in data set [4] is listed as 84%. Besides, in data set [5], the “percent inhibition of Factor 11 at 9.375 nM” value turned out to be 24%, the “percent inhibition of Factor 11 at 18.75 nM” value was 33%, the “percent inhibition of Factor 11 at 37.5 nM” value amounted to 53% and the “percent inhibition of Factor 11 at 75 nM” value was 70%. In data set [5], the “percent inhibition of Factor 11 at 150 nM” value is 84% and the IC50 came to 0.033 µM. In addition, the “% inhibition” value in data set [3] (setting [7]) was 86%.
